Data taken from US20200308141A1, “SOLID STATE FORMS OF NERATINIB AND SALTS THEREOF” (PLIVA HRVATSKA D.O.O., priority 2016, published 2020).

Columns and labels:
[1] = Solubility test according to European Pharmacopoeia 7.0, 5.11; assay type: physicochemical; details: for Solubility: Ph. Eur. descriptive term
Method: Solubility test was performed according to European Pharmacopoeia 7.0, page 637, 5.11.

[2] = Texture analysis (low-pressure compression, TA-XTplus Texture analyser); assay type: physicochemical; details: for Compressed density index, CDI: 200 mg sample, cyclic compression up to 20 steps, CDI below 15 is considered good flowability
Method: A simple and low sample consuming method for evaluation of the packing density of powders were obtained as compression profiles under low pressures using a die and a flat-faced punch fitted on a TA-XTplus Texture analyser (Stable Micro Systems Ltd., Godalming, UK). The small amount of 200 mg of sample was compressed in a steel mould (with the rate of displacement 0.03 mm/s). Also, a cyclic procedure (similar to tapping) was performed at maximal compressive displacement 0.5 mm, then retracting, relaxation for 15 s and then repeated compressive steps (altogether up to 20 steps).
Density at 0.2 MPa and CDI data of Neratinib maleate Form monohydrate and Neratinib maleate Form B6 (prepared according to example 12) are presented in Table 2.

SMILES: CCOc1cc2ncc(C#N)c(Nc3ccc(OCc4ccccn4)c(Cl)c3)c2cc1NC(=O)/C=C/CN(C)C [Neratinib base B6, (E)-N-{4-[3-Chloro-4-(2-pyridinylmethoxy)anilino]-3-cyano-7-ethoxy-6-quinolinyl}-4-(dimethylamino) -2-butenamide]
- Solubility compared with Neratinib maleate monohydrate ([1]; all tested conditions (pH 1.1, 4.5, 6.8), listed as Neratinib base form B6): good correlation
- Solubility ([1]; pH = 1.1): sparingly
- Solubility ([1]; pH = 4.5): slightly
- Solubility ([1]; pH = 6.8): very slightly
- Density at 0.2 MPa ([2]; 200 mg sample compressed in steel mould, 0.03 mm/s, listed as crystalline form B6 of Neratinib base): higher than that of the Neratinib maleate monohydrate
- Compressed density index, CDI ([2]; listed as Neratinib base Form B6): 10.89
- Compressed density index, CDI ([2]; listed as crystalline form B6 of Neratinib base): below 15
